Experimental data taken from patent publication US7915297B2, “Isoxazole derivatives and use thereof” (SK Holdings Co., Ltd., priority 2005, dated 2011).

How the values were obtained:
[1] = system: Wnt/β-catenin signaling (β-catenin activity) in SW480 cell line; test: Cell-based Wnt agonist screening, TCF luciferase reporter, SW480 (TCF-FL); parameters: species or system human; details: Homo sapiens, % of LiCl (20 mM), 24 h, read-out: Max. Activity (%); for Emax at 30 µM: Con. 30 μM; for Emax at 120 µM: Con. 120 μM; for Emax at 1 µM: Con. 1 μM
Summary of the method: (§1)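 HEK293 and SW480 lines stably carried a 5X TCF firefly luciferase reporter under G418 selection. Cells (8,000–15,000/well, RPMI 1640 with 5% FBS) were grown 24 h, then treated with compound for 24 h. Luciferase activity was expressed as percent of the 20 mM LiCl positive control.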

[2] = system: Wnt/β-catenin signaling (β-catenin activity) in HEK293 cell line; test: Cell-based Wnt agonist screening, TCF luciferase reporter, HEK293 (TCF-FL); parameters: species or system human; details: Homo sapiens, HEK293, 24 h, % of LiCl (20 mM), 24 h, read-out: Max. Activity (%); for Emax at 30 µM: Conc. 30 μM; for Emax at 120 µM: Conc. 120 μM
Summary of the method: as §1

[3] = system: ST-2, a murine bone marrow stromal T cell; test: Differentiation of ST2 cell line into osteoblasts, alkaline phosphatase activity; format: cell-based; details: Mus musculus, 96 h; ST-2 cells, 11 μM compound, 4 days; control treated only with ascorbic acid and β-glycerolphosphate = 100; read-out: ALP Activity (% Control)
Method: The derivatives synthesized according to the present invention were assayed for their ability to differentiate stem cells into osteoblasts. In this regard, ST-2, a murine bone marrow stromal T cell, was used to measure the activity of bone-specific alkaline phosphatase, a marker of early-stage osteoblast differentiation. In detail, the cell line was cultured in an MEM supplemented with penicillin-streptomycin (100 Units/mL) and heat-inactivated 5% fetal bovine serum under standard culture conditions (5% CO2, 37° C., 100% relative humidity). […] The suspension was diluted with the same medium to adjust the cell count to 5,000˜10,000 cells per well, and was moved in a 96-well microtiter, subsequently. After being incubated for 24 hrs, the cells were treated in a medium containing 50 μg/ml of ascorbic acid and 5 mM of β-glycerolphosphate with various concentrations of the isoxazole derivatives synthesized in Preparation Examples. During incubation for one to nine days, the Alkaline phosphatase activity was analyzed using a […] Assay kit (Promega, U.S.A.) according to the protocol described in the manual provided by the manufacturer. The activities were measured in cells which had been incubated at 11 μM of each of the compounds for 4 days. Data on the activities of the isoxazole derivatives synthesized are given in Tables 44 to 47 and are expressed as percentages of ALP relative to that measured in the control, which was treated only with ascorbic acid and β-glycerolphosphate. ALP activities according to the concentrations of Derivative (1) are depicted in FIG. 5.

| SMILES | Emax at 30 µM [1] | activity at 11 µM [3] | also measured |
| --- | --- | --- | --- |
| Cc1ccc(CCNC(=O)c2cc(-c3ccco3)on2)cc1 [Derivative (15), 5-furan-2-yl-isoxazole-3-carboxylic acid (2-p-tolyl-ethyl)-amide] | < 20% | 278% | Emax at 30 µM [2]: < 20% |
| COc1ccc(CCNC(=O)c2cc(-c3ccco3)on2)cc1 [Derivative (21), 5-furan-2-yl-isoxazole-3-carboxylic acid [2-(4-methoxy-phenyl)-ethyl]-amide] | 287% | 334% | Emax at 30 µM [2]: 23% |
| O=C(NCCc1ccc(O)c(O)c1)c1cc(-c2ccco2)on1 [Derivative (28), 5-furan-2-yl-isoxazole-3-carboxylic acid [2-(3,4-dihydroxy-phenyl)-ethyl]-amide] | < 20% | 436% | Emax at 30 µM [2]: < 20% |
| Cc1nccn1CCNC(=O)c1cc(-c2ccco2)on1 [Derivative (35), 5-furan-2-yl-isoxazole-3-carboxylic acid [2-(2-methyl-imidazol-1-yl)-ethyl]-amide] | – | 686% | Emax at 120 µM [1]: 130%; Emax at 120 µM [2]: 35% |
| Cc1cncn1CCNC(=O)c1cc(-c2ccco2)on1 [Derivative (36), 5-furan-2-yl-isoxazole-3-carboxylic acid [2-(5-methyl-imidazol-1-yl)-ethyl]-amide] | – | 396% | Emax at 120 µM [1]: 283%; Emax at 120 µM [2]: 71% |
| O=C(NCCn1ccnc1)c1cc(-c2ccccc2F)on1 [Derivative (85), 5-(2-fluoro-phenyl)-isoxazole-3-carboxylic acid (2-imidazol-1-yl-ethyl)-amide] | < 20% | 640% | Emax at 30 µM [2]: < 20% |
| O=C(NCCn1ccnc1)c1cc(-c2ccc(F)cc2)on1 [Derivative (86), 5-(4-fluoro-phenyl)-isoxazole-3-carboxylic acid (2-imidazol-1-yl-ethyl)-amide] | < 20% | 546% | Emax at 30 µM [2]: < 20% |
| COc1cccnc1N1CCN(CCNC(=O)c2cc(-c3ccco3)on2)CC1 [Derivative (189), 5-furan-2-yl-isoxazole-3-carboxylic acid {2-[4-(3-methoxy-pyridin-2-yl)-piperazin-1-yl]-ethyl}-amide] | 238% | 220% | – |
| Cc1cccnc1N1CCN(CCNC(=O)c2cc(-c3ccco3)on2)CC1 [Derivative (190), 5-furan-2-yl-isoxazole-3-carboxylic acid {2-[4-(3-methyl-pyridin-2-yl)-piperazin-1-yl]-ethyl}-amide] | – | 269% | Emax at 120 µM [1]: 372% |
| O=C(NCCN1CCN(c2ncccc2C(F)(F)F)CC1)c1cc(-c2ccco2)on1 [Derivative (191), 5-furan-2-yl-isoxazole-3-carboxylic acid {2-[4-(3-trifluoromethyl-pyridin-2-yl)-piperazin-1-yl]-ethyl}-amide] | 91% | 309% | – |
| O=C(NCCN1CCN(c2ncccn2)CC1)c1cc(-c2ccco2)on1 [Derivative (192), 5-furan-2-yl-isoxazole-3-carboxylic acid [2-(4-pyrimidin-2-yl-piperazin-1-yl)-ethyl]-amide] | 137% | 398% | – |
| COc1ccccc1N1CCN(CCNC(=O)c2cc(-c3ccco3)on2)CC1 [Derivative (193), 5-furan-2-yl-isoxazole-3-carboxylic acid {2-[4-(2-methoxyphenyl)-piperazin-1-yl]-ethyl}-amide] | 382% | 173% | – |
| O=C(NCCN(c1ccccc1)c1ccccc1)c1cc(-c2ccco2)on1 [Derivative (196), 5-furan-2-yl-isoxazole-3-carboxylic acid (2-diphenylamino-ethyl)-amide] | 35% | 77% | – |
| O=C(NCCNCc1ccccc1)c1cc(-c2ccco2)on1 [Derivative (197), 5-furan-2-yl-isoxazole-3-carboxylic acid (2-benzylamino-ethyl)-amide] | – | 118% | Emax at 120 µM [1]: 84% |
| O=C(NCCNc1ccc(Cl)cc1)c1cc(-c2ccco2)on1 [Derivative (198), 5-furan-2-yl-isoxazole-3-carboxylic acid [2-(4-chloro-phenylamino)-ethyl]-amide] | 50% | 100% | – |
| CC(C)c1ccc(NCCNC(=O)c2cc(-c3ccco3)on2)cc1 [Derivative (199), 5-furan-2-yl-isoxazole-3-carboxylic acid [2-(4-isopropyl-phenylamino)-ethyl]-amide] | 45% | 63% | – |
| COc1ccc(NCCNC(=O)c2cc(-c3ccco3)on2)cc1 [Derivative (200), 5-furan-2-yl-isoxazole-3-carboxylic acid [2-(4-methoxy-phenylamino)-ethyl]-amide] | 106% | 162% | – |
| O=C(NCCCNc1ccccc1)c1cc(-c2ccco2)on1 [Derivative (201), 5-furan-2-yl-isoxazole-3-carboxylic acid (3-phenylamino-propyl)-amide] | – | 859% | Emax at 1 µM [1]: 545% |
| CN(CCNC(=O)c1cc(-c2ccco2)on1)c1ccccc1 [Derivative (202), 5-furan-2-yl-isoxazole-3-carboxylic acid [2-(methyl-phenyl-amino)-ethyl]-amide] | 185% | 109% | – |
| CN(CCCNC(=O)c1cc(-c2ccco2)on1)c1ccccc1 [Derivative (203), 5-furan-2-yl-isoxazole-3-carboxylic acid [3-(methyl-phenyl-amino)-propyl]-amide] | 851% | 260% | – |
| O=C(NCCNc1ccccn1)c1cc(-c2ccco2)on1 [Derivative (204), 5-furan-2-yl-isoxazole-3-carboxylic acid [2-(pyridin-2-ylamino)-ethyl]-amide] | – | 150% | Emax at 120 µM [1]: 369% |
| O=C(CNC(=O)c1cc(-c2ccco2)on1)c1ccccc1 [Derivative (205), 5-furan-2-yl-isoxazole-3-carboxylic acid (2-oxo-2-phenyl-ethyl)-amide] | – | 58% | Emax at 10 µM ([1]; Con. 10 μM): 59% |
| O=C(CCNC(=O)c1cc(-c2cccs2)on1)c1ccccc1 [Derivative (206), 5-thiophen-2-yl-isoxazole-3-carboxylic acid (3-oxo-3-phenyl-propyl)-amide] | – | 772% | Emax at 120 µM [1]: 584% |
| O=C(CNC(=O)c1cc(-c2ccco2)on1)Nc1ccccc1 [Derivative (207), 5-furan-2-yl-isoxazole-3-carboxylic acid phenylcarbamoylmethyl-amide] | – | 47% | Emax at 120 µM [1]: 34% |
| O=C(CNC(=O)c1cc(-c2ccco2)on1)Nc1ccccn1 [Derivative (208), 5-furan-2-yl-isoxazole-3-carboxylic acid (pyridin-2-ylcarbamoylmethyl)-amide] | 110% | 57% | – |
| O=C(NCCNC(=O)c1cc(-c2cccs2)on1)c1ccccc1 [Derivative (210), 5-thiophen-2-yl-isoxazole-3-carboxylic acid (2-benzoylamino-ethyl)-amide] | – | 202% | Emax at 1 µM [1]: 475% |
| O=C(NCCNC(=O)c1cc(-c2cccs2)on1)Nc1ccccc1 [Derivative (211), 5-thiophen-2-yl-isoxazole-3-carboxylic acid [2-(3-phenyl-urido)-ethyl]-amide] | 158% | 204% | – |
| O=C(NCCOc1ccccc1)c1cc(-c2cccs2)on1 [Derivative (215), 5-thiophen-2-yl-isoxazole-3-carboxylic acid (2-phenoxy-ethyl)-amide] | 90% | 162% | – |
| O=C(NCCSc1ccccc1)c1cc(-c2cccs2)on1 [Derivative (218), 5-thiophen-2-yl-isoxazole-3-carboxylic acid (2-phenylsulfanyl-ethyl)-amide] | 55% | 128% | – |
| O=C(NCCS(=O)(=O)Nc1ccccc1)c1cc(-c2cccs2)on1 [Derivative (220), 5-thiophen-2-yl-isoxazole-3-carboxylic acid (2-phenylsulfamoyl-ethyl)-amide] | – | 187% | Emax at 120 µM [1]: 182% |
